Results published in US9770409B2, “Aerosol formulations of ondansetron and uses thereof” (LUXENA PHARMACEUTICALS, INC., priority 2013, dated 2017).
In brackets after ≈: the same amount, converted by molar mass. Several values for one entry are separate records, joined by “and”; a condition that tells them apart may be missing. Equal values may be shown once. Read-outs that look alike come from different tables or passages of the source.

Assays:
[1] = Particle size distribution of spray dried ondansetron fine powder by Malvern Mastersizer; format: physicochemical; conditions: typical particle size distribution
Protocol: The Particle Size Distribution of the Ondansetron Fine Powder, prepared by Spray Drying using the above parameters was measured by Malvern Mastersizer (Malvern Instruments, UK) at GEA Process Engineering, Inc., Columbia, Md., USA.

[2] = Solubility of ondansetron in pMDI medium; format: physicochemical; conditions: for solubility at 8 days: organic solvent or mixture, thermodynamic from solid
Protocol: The solubility of ondansetron was measured in a pMDI medium of HFA 134 as well as a mixture of HFA 134 and ethanol.

[3] = HFA 134a with Ethanol (9:1), 8 days

Cumulative % on <10 μm [1] [%]	D10 [1] [μm]	D50 [1] [μm]	D90 [1] [μm]	Mean Size [1] [μm]	solubility at 8 days ([2]; HFA 134a (pMDI medium), HFA 134a alone, read-out: Solubility in HFA 134a, Average (RSD)) [µg/mL]	solubility at 8 days ([2]; HFA 134a (pMDI medium), HFA 134a alone, read-out: Solubility in HFA 134a, single determinations) [µg/mL]	Solubility in HFA 134a as % w/w ([2]; HFA 134a alone, 8 days, from gravity of HFA 134a 1.21 g/mL) [% w/w]	Solubility in HFA 134a with Ethanol (9:1) as % w/w [2, 3] [% w/w]	solubility at 8 days ([2]; HFA 134a with ethanol (9:1) (pMDI medium), HFA 134a with Ethanol (9:1), read-out: Solubility in HFA 134a with Ethanol (9:1), Average (RSD)) [µg/mL]	solubility at 8 days ([2]; HFA 134a with ethanol (9:1) (pMDI medium), HFA 134a with Ethanol (9:1), read-out: Solubility in HFA 134a with Ethanol (9:1), single determinations) [µg/mL]	Compound	Solubility in HFA 134a, single determinations ([2]; HFA 134a alone, 8 days)	Solubility in HFA 134a with Ethanol (9:1), single determinations [2, 3]
99.5	3.23	5.01	7.22	4.80							Cc1nccn1CC1CCc2c(c3ccccc3n2C)C1=O (stereo not shown) [Ondansetron Fine Powder, ondansetron]		
					37.8 (≈ 129 µM)	34.7 (≈ 118 µM)	0.00312	0.01668	202 (≈ 688 µM)	199 (≈ 680 µM)	Cc1nccn1CC1CCc2c(c3ccccc3n2C)C1=O (stereo not shown) [ondansetron]	35.97 µg/mL and 40.27 µg/mL and 40.26 µg/mL	196.85 µg/mL and 215.75 µg/mL and 195.17 µg/mL
